# Test results: patent US10894784B2, “Heteroarylbenzimidazole compounds” (BAYER PHARMA AKTIENGESELLSCHAFT, priority 2015, dated 2021)
# Biological target: TBK1 (Homo sapiens (Human), UniProt Q9UHD2)
# Assay: TBK1 low ATP kinase assay (in vitro assay 1)
# Assay type: biochemical
# Conditions: TBK1 low ATP kinase assay IC50, in vitro assay 1
# Sequence of TBK1 (Q9UHD2 whole entry): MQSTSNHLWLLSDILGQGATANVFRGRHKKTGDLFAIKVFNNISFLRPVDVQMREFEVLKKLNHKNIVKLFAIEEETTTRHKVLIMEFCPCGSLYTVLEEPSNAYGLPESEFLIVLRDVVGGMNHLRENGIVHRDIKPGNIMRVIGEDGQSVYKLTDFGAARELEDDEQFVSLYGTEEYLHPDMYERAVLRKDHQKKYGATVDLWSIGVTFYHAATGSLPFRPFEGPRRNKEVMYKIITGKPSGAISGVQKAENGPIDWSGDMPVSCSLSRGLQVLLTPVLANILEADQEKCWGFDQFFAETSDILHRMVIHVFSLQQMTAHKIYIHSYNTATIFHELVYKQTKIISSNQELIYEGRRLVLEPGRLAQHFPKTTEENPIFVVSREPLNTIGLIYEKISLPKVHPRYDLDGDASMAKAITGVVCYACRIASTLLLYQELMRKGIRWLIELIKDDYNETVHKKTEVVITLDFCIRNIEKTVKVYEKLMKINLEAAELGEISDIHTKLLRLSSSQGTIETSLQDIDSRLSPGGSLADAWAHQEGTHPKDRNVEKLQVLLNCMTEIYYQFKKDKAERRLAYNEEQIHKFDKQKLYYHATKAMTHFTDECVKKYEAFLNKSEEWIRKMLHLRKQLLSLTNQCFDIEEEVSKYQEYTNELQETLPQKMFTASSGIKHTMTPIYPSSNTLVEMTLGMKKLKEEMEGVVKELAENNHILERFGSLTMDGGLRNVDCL
row,Compound,IC50 [nM]
1,"CC(C)Oc1cncnc1-c1ccc2nc(Nc3cc(C(C)N4CCN(C(=O)CC(F)(F)F)CC4)ccn3)[nH]c2c1 (single isomer, unassigned) [Example 36.02, 3,3,3-trifluoro-1-(4-{(1R or 1S)-1-[2-({6-[5-(propan-2-yloxy)pyrimidin-4-yl]-1H-benzimidazol-2-yl}amino)pyridin-4-yl]ethyl}piperazin-1-yl)propan-1-one]",1.96
2,"CC(c1ccnc(Nc2nc3ccc(-c4cnn(CC5CC5)c4)cc3[nH]2)c1)N1CCN(C(=O)CC(F)(F)F)CC1 (single isomer, unassigned) [Example 39.02.02, 1-(4-{(1R or 1S)-1-[2-({6-[1-(cyclopropylmethyl)-1H-pyrazol-4-yl]-1H-benzimidazol-2-yl}amino)pyridin-4-yl]ethyl}piperazin-1-yl)-3,3,3-trifluoropropan-1-one]",1.8

# Same assay, conditions: in vitro assay 1, read-out: TBK1 low ATP kinase assay IC50
row,Compound,IC50 [nM]
1,"Cc1cc(-c2ccc3nc(Nc4cc(C(C)N5CCN(C(=O)C6CCC6)CC5)ccn4)[nH]c3c2)ncn1 (single isomer, unassigned) [Example 30.03.02.A, cyclobutyl{4-[(1R or 1S)-1-(2-{[6-(6-methylpyrimidin-4-yl)-1H-benzimidazol-2-yl]amino}pyridin-4-yl)ethyl]piperazin-1-yl}methanone]",4.15
2,"Cc1cc(-c2ccc3nc(Nc4cc(C(C)N5CCN(C(=O)C6CCC6)CC5)ccn4)[nH]c3c2)ncn1 (single isomer, unassigned) [Example 30.03.02.B, cyclobutyl{4-[(1S or 1R)-1-(2-{[6-(6-methylpyrimidin-4-yl)-1H-benzimidazol-2-yl]amino}pyridin-4-yl)ethyl]piperazin-1-yl}methanone]",27.5
3,"Cc1cc(-c2ccc3nc(Nc4cc(C(C)N5CCN(C(=O)C6CC6)CC5)ccn4)[nH]c3c2)ncn1 (single isomer, unassigned) [Example 30.03.03.A, cyclopropyl{4-[(1R or 1S)-1-(2-{[6-(6-methylpyrimidin-4-yl)-1H-benzimidazol-2-yl]amino}pyridin-4-yl)ethyl]piperazin-1-yl}methanone]",3.06
4,"Cc1cc(-c2ccc3nc(Nc4cc(C(C)N5CCN(C(=O)C6CC6)CC5)ccn4)[nH]c3c2)ncn1 (single isomer, unassigned) [Example 30.03.03.B, cyclopropyl{4-[(1S or 1R)-1-(2-{[6-(6-methylpyrimidin-4-yl)-1H-benzimidazol-2-yl]amino}pyridin-4-yl)ethyl]piperazin-1-yl}methanone]",14
5,"COc1cc(-c2ccc3nc(Nc4cc(C(C)N5CCN(C(=O)CC(F)(F)F)CC5)ccn4)[nH]c3c2)ncn1 (single isomer, unassigned) [Example 34.03.01.A, 3,3,3-trifluoro-1-{4-[(1R or 1S)-1-(2-{[6-(6-methoxypyrimidin-4-yl)-1H-benzimidazol-2-yl]amino}pyridin-4-yl)ethyl]piperazin-1-yl}propan-1-one]",12.1
6,"COc1cc(-c2ccc3nc(Nc4cc(C(C)N5CCN(C(=O)CC(F)(F)F)CC5)ccn4)[nH]c3c2)ncn1 (single isomer, unassigned) [Example 34.03.01.B, 3,3,3-trifluoro-1-{4-[(1S or 1R)-1-(2-{[6-(6-methoxypyrimidin-4-yl)-1H-benzimidazol-2-yl]amino}pyridin-4-yl)ethyl]piperazin-1-yl}propan-1-one]",50.1
7,"COc1cc(-c2ccc3nc(Nc4cc(C(C)N5CCN(C(=O)C6CC6)CC5)ccn4)[nH]c3c2)ncn1 (single isomer, unassigned) [Example 34.03.02.A, cyclopropyl{4-[(1R or 1S)-1-(2-{[6-(6-methoxypyrimidin-4-yl)-1H-benzimidazol-2-yl]amino}pyridin-4-yl)ethyl]piperazin-1-yl}methanone]",46.4
8,"COc1cc(-c2ccc3nc(Nc4cc(C(C)N5CCN(C(=O)C6CC6)CC5)ccn4)[nH]c3c2)ncn1 (single isomer, unassigned) [Example 34.03.02.B, cyclopropyl{4-[(1S or 1R)-1-(2-{[6-(6-methoxypyrimidin-4-yl)-1H-benzimidazol-2-yl]amino}pyridin-4-yl)ethyl]piperazin-1-yl}methanone]",7.22
9,"COc1cncnc1-c1ccc2nc(Nc3cc(C(C)N4CCN(C(=O)CC(F)(F)F)CC4)ccn3)[nH]c2c1 (single isomer, unassigned) [Example 35.03.01.A, 3,3,3-trifluoro-1-{4-[(1R or 1S)-1-(2-{[6-(5-methoxypyrimidin-4-yl)-1H-benzimidazol-2-yl]amino}pyridin-4-yl)ethyl]piperazin-1-yl}propan-1-one]",3.85
10,"COc1cncnc1-c1ccc2nc(Nc3cc(C(C)N4CCN(C(=O)CC(F)(F)F)CC4)ccn3)[nH]c2c1 (single isomer, unassigned) [Example 35.03.01.B, 3,3,3-trifluoro-1-{4-[(1S or 1R)-1-(2-{[6-(5-methoxypyrimidin-4-yl)-1H-benzimidazol-2-yl]amino}pyridin-4-yl)ethyl]piperazin-1-yl}propan-1-one]",30
11,"COc1cncnc1-c1ccc2nc(Nc3cc(C(C)N4CCN(C(=O)CC5CC5)CC4)ccn3)[nH]c2c1 (single isomer, unassigned) [Example 35.03.02.A, 2-cyclopropyl-1-{4-[(1R or 1S)-1-(2-{[6-(5-methoxypyrimidin-4-yl)-1H-benzimidazol-2-yl]amino}pyridin-4-yl)ethyl]piperazin-1-yl}ethanone]",8.33
12,"COc1cncnc1-c1ccc2nc(Nc3cc(C(C)N4CCN(C(=O)CC5CC5)CC4)ccn3)[nH]c2c1 (single isomer, unassigned) [Example 35.03.02.B, 2-cyclopropyl-1-{4-[(1S or 1R)-1-(2-{[6-(5-methoxypyrimidin-4-yl)-1H-benzimidazol-2-yl]amino}pyridin-4-yl)ethyl]piperazin-1-yl}ethanone]",32.8
13,"COc1cncnc1-c1ccc2nc(Nc3cc(C(C)N4CCN(C(=O)C5CC5)CC4)ccn3)[nH]c2c1 (single isomer, unassigned) [Example 35.03.03.A, cyclopropyl{4-[(1R or 1S)-1-(2-{[6-(5-methoxypyrimidin-4-yl)-1H-benzimidazol-2-yl]amino}pyridin-4-yl)ethyl]piperazin-1-yl}methanone]",5.62
14,"COc1cncnc1-c1ccc2nc(Nc3cc(C(C)N4CCN(C(=O)C5CC5)CC4)ccn3)[nH]c2c1 (single isomer, unassigned) [Example 35.03.03.B, cyclopropyl{4-[(1S or 1R)-1-(2-{[6-(5-methoxypyrimidin-4-yl)-1H-benzimidazol-2-yl]amino}pyridin-4-yl)ethyl]piperazin-1-yl}methanone]",31.7
15,"COc1cncnc1-c1ccc2nc(Nc3cc(C(C)N4CCN(C(=O)C5CCC5)CC4)ccn3)[nH]c2c1 (single isomer, unassigned) [Example 35.03.04.A, cyclobutyl{4-[(1R or 1S)-1-(2-{[6-(5-methoxypyrimidin-4-yl)-1H-benzimidazol-2-yl]amino}pyridin-4-yl)ethyl]piperazin-1-yl}methanone]",8.38
16,"COc1cncnc1-c1ccc2nc(Nc3cc(C(C)N4CCN(C(=O)C5CCC5)CC4)ccn3)[nH]c2c1 (single isomer, unassigned) [Example 35.03.04.B, cyclobutyl{4-[(1R or 1S)-1-(2-{[6-(5-methoxypyrimidin-4-yl)-1H-benzimidazol-2-yl]amino}pyridin-4-yl)ethyl]piperazin-1-yl}methanone]",34.5
17,"CC(C)Oc1cncnc1-c1ccc2nc(Nc3cc(C(C)N4CCN(C(=O)C5CC5)CC4)ccn3)[nH]c2c1 (single isomer, unassigned) [Example 36.03, cyclopropyl(4-{(1R or 1S)-1-[2-({6-[5-(propan-2-yloxy)pyrimidin-4-yl]-1H-benzimidazol-2-yl}amino)pyridin-4-yl]ethyl}piperazin-1-yl)methanone]",2.13
18,"CC(C)Oc1cncnc1-c1ccc2nc(Nc3cc(C(C)N4CCN(C(=O)C5CCC5)CC4)ccn3)[nH]c2c1 (single isomer, unassigned) [Example 36.04, cyclobutyl(4-{(1R or 1S)-1-[2-({6-[5-(propan-2-yloxy)pyrimidin-4-yl]-1H-benzimidazol-2-yl}amino)pyridin-4-yl]ethyl}piperazin-1-yl)methanone]",2.5
19,"CC(c1ccnc(Nc2nc3ccc(-c4cnn(CC5CC5)c4)cc3[nH]2)c1)N1CCN(C(=O)OC(C)(C)C)CC1 (single isomer, unassigned) [Example 39.02.01, tert-butyl 4-{(1R or 1S)-1-[2-({6-[1-(cyclopropylmethyl)-1H-pyrazol-4-yl]-1H-benzimidazol-2-yl}amino)pyridin-4-yl]ethyl}piperazine-1-carboxylate]",8.61
20,"CC(c1ccnc(Nc2nc3ccc(-c4cnn(CC5CC5)c4)cc3[nH]2)c1)N1CCN(C(=O)C2CC2)CC1 (single isomer, unassigned) [Example 39.02.03, cyclopropyl(4-{(1R or 1S)-1-[2-({6-[1-(cyclopropylmethyl)-1H-pyrazol-4-yl]-1H-benzimidazol-2-yl}amino)pyridin-4-yl]ethyl}piperazin-1-yl)methanone]",1.66
21,"CC(c1ccnc(Nc2nc3ccc(-c4cnn(CC5CC5(F)F)c4)cc3[nH]2)c1)N1CCN(C(=O)OC(C)(C)C)CC1 (single isomer, unassigned) [Example 55.01, tert-butyl 4-[(1R or 1S)-1-(2-{[6-(1-{[(1RS)-2,2-difluorocyclopropyl]methyl}-1H-pyrazol-4-yl)-1H-benzimidazol-2-yl]amino}pyridin-4-yl)ethyl]piperazine-1-carboxylate]",4.05
22,"CC(c1ccnc(Nc2nc3ccc(-c4cnn(CC5CC5(F)F)c4)cc3[nH]2)c1)N1CCN(C(=O)OC(C)(C)C)CC1 (single isomer, unassigned) [Example 55.01.01, tert-butyl 4-[(1R or 1S)-1-(2-{[6-(1-{[(1R or 1S)-2,2-difluorocyclopropyl]methyl}-1H-pyrazol-4-yl)-1H-benzimidazol-2-yl]amino}pyridin-4-yl)ethyl]piperazine-1-carboxylate]",5.5
